Assay results as given in PMC12261321, “Inhibitors of the Bacterioferritin Ferredoxin Complex Dysregulate Iron Homeostasis and Kill and Biofilm-Embedded Cells” (ACS Infectious Diseases, 2025).
In brackets after ≈: the same amount, converted by molar mass.

Legend:
[1] = tested on: P. aeruginosa PAO1 biofilm; assay: Pellicle biofilm assay, % survival of biofilm cells; format: cell-based; details: for % Survival Biofilm, P. aeruginosa PAO1: 24 h; for biofilm cell death: 27 h old pellicle biofilms treated 24 h
Experimental: We studied the susceptibility of mature biofilms to treatment with analogues of 4-aminoisoindoline-1,3-dione using biofilms cultured at the […] interface (pellicles) using methodology reported previously. To determine the susceptibility of pellicle biofilms to inhibitors of the Pa Bfr–Bfd complex, we cultured 27 h old biofilms in PI media supplemented with 20 μM Fe, as presented in Experimental Methods. The mature biofilms were transferred onto glass coverslips by touching the pellicle with the surface of the coverslips. The coverslip-adhered biofilms were then exposed to treatment solution consisting of AB media supplemented with 20 μM Fe, 1.5% DMSO, 0.025% HPMC, and 4-aminoisoindoline-1,3-dione derivative or commercial antibiotic for 24 h. The biofilms were then harvested and washed, and the cells were dispersed into sterile PBS by vortexing in the presence of zirconia beads prior to plating and enumerating viable cells (CFU/mL) to calculate % cell survival.
Biofilm Assays. Pellicle biofilms formed by EYF P-expressing P. aeruginosa PAO1 wer e carried ou t as repo rted previously,13 with some modifications. Starter cultures were diluted to OD600 = 0.001 in 4 mL PI media supplement ed with 20 µM Fe , trans ferred to petri dishes (35 x 10 mm) and incubated statically for 27 h at 30 °C.
The pellicles were transferred onto circular microscope glass coverslips (12 mm diameter) by gently allowing the surface of a coverslip to contact the pellicle. Th e biofilm- attached coverslip was washed (3 x) by floating it on top of PBS with the biofilm exposed to the liquid and then placed on top of 1.5 mL AB challenge media in a well of a 12-well microplate, with the biofilm exposed to the media at 30 °C for 24 h. AB challenge media is AB minimal media supplemented with 1.5% DMSO, 0.025% HPMC, 20 μ M Fe, and 4-aminoisoindoline-1,3- dione […]
The 4-aminoisoindoline-1,3- dione derivative solutions were prep ared from powder as 10 mM st ock solutions in DMSO and then diluted in AB challenge media to the appropriate concentrations. Following the 24 h challenge, planktonic and loosely attached cells were washed 3 times by floating the coverslip-attached biofilms with the biofilm facing down into a petri d ish (60 x 15 mm) containing 15 mL PBS, and incubating for 5 min. The biofilm was removed from the coversli p and the cells releas ed f rom the extra cel lular matrix by placing th e cov erslip-attach ed biofi lm in a 50 mL conical tub e containing a 2-mL sup ension of zirconia beads (0.1 mm diam eter, BiosSpec Produ cts), 10 mL PBS, 1 mM MgSO4, 20 µg/mL alginate lyase and 40 µg/mL DNAse. The mixture was incubated for three min at room temperature, and then vigorously vortexed for four min. Following sedimentation of the zirconia beads, a 100 μ L aliquot was utilized for serial dilution in PBS and plating on PIA plates for viable cell enumeration (CFU/mL). […]

recombinant Pa BfrB = molecular target: T1, recombinant Pa BfrB (Pseudomonas aeruginosa, UniProt Q9HY79); assay: Dissociation constant (Kd), fluorescence quenching titration of apo Pa BfrB; format: binding, P. aeruginosa
T1 construct: made in house; host or cells: E. coli
Experimental: Measurement of Dissociation Constant (Kd) R ecombinant Pa BfrB was expressed in E. coli and purified as previously reported.19 Apo-BfrB (devoid of heme) was utilized for the measurements to prevent heme-driven fluorescence quenching. A 0.5 mL solution contai ning 0.01 µM apo Pa-BfrB in PBS (pH = 7.4) containing0.5% DMSO was plac ed into a 1 cm quartz cuvette wh ere it was titrated with aliq uots of compound dissolved in a 50% (v/v) PBS/DMSO solution. The fluorescence quenching brought by the addition of each aliquot was monitored with the aid of an Agilent Cary Fluorometer , with excitation at 280 nm, emission at 320- 470 nm, 10 x10 nm slit width, and an average of 5 scans per spectrum. Th e binding assay included at least 8 aliquots spanning from ~ 0.1 […]
A control titration was carried out by titrati ng compound into PBS buffer. The Kd was cal culated by fitting the data to equation S4, w here Fb is the fraction bound and Fmax is the fraction bound at saturating compound concentration.
FFbb = FFmmmmmm ? [ccccmmccccccmmcc ]? (S4) […]

P. aeruginosa PAO1 = assay: Half maximal inhibitory concentration (IC50), planktonic growth (CFU/mL); format: cell-based; details: M63 media, 18 h
Experimental: Measurement of Half Maximal Inhibitory Concentration (IC50). IC50 values were determined as reported earlier13 with some modifications. Compound stock solutions in DMSO (100 mM and 10 mM) were prepared from powd er. To prep are the cell susp ensions utilized in the measu rements, starter cultures o f P. aeru ginosa wer e diluted to an optical density at 600 nm (OD600) = 0.005 in fresh LB media (5 mL) and then cultured at 37°C and 220 rpm for 4 h prior to diluting to an OD600 = 0.0001 in M63. A small volume of compound stock solution w as further diluted in DMSO to 30 µL and then diluted in M63 cell suspension to a final volume of 2.0 mL. The resultant solution was placed in a well of a 96-well plate and then serially 2-fold diluted in M63 cell suspension to produce 6 distinct com pound concent rations, each with 1.5% DMSO. Th e plate was co ver ed and incubated for 18 h at 35 °C in a Synergy H1 plate reader (Biotek). The resultant cell cultures were serially diluted in PBS and then plated on PI Agar plates (PIA; BD biosciences) for counting viable cells (CFU/mL). The % growth was calculated from the ratio CFU/mL(t reat ed )/CFU/mL(untreated control). To calculate the IC50 values, the % growth was plotted as a function of compound concentration expressed as log[compound] ( µM), and fitted to equation S1 describing the sigmoid- shaped response pattern, 14 where b is the slope factor, max is the upper asymptote (plateau), and min is the lower asymptote. IC 50 values are the average and standard deviation from three independent experiments , each conducted with thr ee techni cal replicates.

[2] = Determination of compound aqueous solubility in M63 media; format: physicochemical; details: in M63 media at 35 °C
Experimental: Determination of Compound Aqueous Solubility. Compound stocks (100 mM in DMSO) were prepared from […]
powder and then further diluted with DMSO to prepare 20 mM working solutions, which were diluted as needed […]
in DMSO. 15 µL o f the DMSO solution was then d iluted to a final volume o f 1.0 mL in M63 media. Six solutions […]
were prepared for each compound, each with a distinct concentration and 1.5% DMSO (v/v). 700 µL of each […]
compound solution was transferred to a polystyrene 48-well plate (VWR), followed by acquisition of UV-vis […]
spectra (300 to 700 nm) with the aid of an Epoch 2 microplate reader (B i o Te k ). […]
Following the acquisition of UV-vis spectra, each of the wells in the plate was inspected under a […]
microscope for evidence of precipitation. Evidence of precipitation at any given concentration was determined by observing a shift in the baseline of the UV-vis spectra relative to the blank (M63 media) and/or evidence of visual precipitation with the aid of a micros cope. […]

[3] = biofilm challenged with 50 µM compound
[4] = Pseudomonas aeruginosa, PAO1, planktonic cells
[5] = M63 media with 1.5% DMSO, 35 °C, aqueous buffer, kinetic from dmso stock
[6] = biofilm challenged with 30 µM compound
[7] = biofilm challenged with 20 µM compound

T1 sequence (Q9HY79 whole entry): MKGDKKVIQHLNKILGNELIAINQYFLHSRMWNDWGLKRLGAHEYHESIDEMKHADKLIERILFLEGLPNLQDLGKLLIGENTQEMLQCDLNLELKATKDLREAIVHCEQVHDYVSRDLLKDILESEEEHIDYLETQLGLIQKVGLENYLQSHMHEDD

| Structure (SMILES) | % Survival Biofilm, P. aeruginosa PAO1 [1, 3] | Kd (recombinant Pa BfrB) | IC50 (P. aeruginosa PAO1; [4]) | solubility at 4 h [2, 5] | IC50 (P. aeruginosa PAO1; planktonic cells) | solubility at 4 h [2] | IC50, P. aeruginosa PAO1 (P. aeruginosa PAO1; planktonic cells) | % Survival Biofilm, P. aeruginosa PAO1 [1, 6] | biofilm cell death [1] | % Survival Biofilm, P. aeruginosa PAO1 [1, 7] | % Survival Biofilm, P. aeruginosa PAO1 ([1]; biofilm challenged with 40 µM compound) |
| --- | --- | --- | --- | --- | --- | --- | --- | --- | --- | --- | --- |
| O=C1NC(=O)c2c(NCc3cc(Cl)cc(O)c3O)cccc21 [SB-16-168] | Not active | 12 ± 2 µM | 15 ± 7 µM | 40 µM (≈ 12.7 µg/mL) |  |  |  |  |  |  |  |
| O=C1NC(=O)c2c(NCc3c(O)cccc3F)cccc21 [EB-5-71] | 52 ± 10% | 56 ± 10 µM |  |  | 80 ± 10 µM | 150 µM (≈ 42.9 µg/mL) |  |  |  |  |  |
| O=C1NC(=O)c2c(NCc3c(O)cccc3Br)cccc21 [EB-5-72] | 45 ± 0.4% | 15 ± 3 µM |  |  | 32 ± 5 µM | 60 µM (≈ 20.8 µg/mL) |  |  |  |  |  |
| O=C1NC(=O)c2c(NCc3ccccc3O)cccc21 [Analog 11, 4-((2-Hydroxybenzyl)amino)isoindoline-1,3-dione] | 87 ± 6% |  | 178 ± 14 µM | 200 µM (≈ 53.7 µg/mL) |  |  |  |  |  |  |  |
| O=C1NC(=O)c2c(NCc3cccc(F)c3O)cccc21 [EB-5-80] | 106 ± 23% | 49 ± 7 µM |  |  |  | 100 µM (≈ 28.6 µg/mL) | Not active |  |  |  |  |
| O=C1NC(=O)c2c(NCc3cccc(Br)c3O)cccc21 [EB-5-73] |  | 7 ± 2 µM |  |  |  | 40 µM (≈ 13.9 µg/mL) | Not active | 78 ± 14% |  |  |  |
| O=C1NC(=O)c2c(NCc3cc(Br)cc(O)c3O)cccc21 [SB-16-136] | 63 ± 2% | 7 ± 1 µM |  |  | 20 ± 5 µM | 60 µM (≈ 21.8 µg/mL) |  |  |  |  |  |
| O=C1NC(=O)c2c(NCc3c(O)cccc3Cl)cccc21 [KM-5-29] | 50 ± 7% | 18 ± 3 µM |  |  | 36 ± 5 µM | 60 µM (≈ 18.2 µg/mL) |  |  |  |  |  |
| O=C1NC(=O)c2c(NCc3cc(Br)ccc3O)cccc21 [KM-5-35, 4-((5-Bromo-2-hydroxybenzyl)amino)isoindoline-1,3-dione] | 10 ± 4% | 9 ± 3 µM |  |  | 27 ± 3 µM | 60 µM (≈ 20.8 µg/mL) |  |  | concentration-dependent biofilm cell death |  |  |
| O=C1NC(=O)c2c(NCc3ccc4c(c3)COC4)cccc21 [SB-17-80] |  | 11 ± 3 µM |  |  |  | 20 µM (≈ 5.89 µg/mL) | Not active |  |  | Not active |  |
| Cc1cc(Br)cc(CNc2cccc3c2C(=O)NC3=O)c1O [SB-16-106] |  | 3 ± 1 µM |  |  | 14 ± 4 µM | 30 µM (≈ 10.8 µg/mL) |  | 42 ± 9% |  |  |  |
| O=C1NC(=O)c2c(NCc3cc(Cl)ccc3O)cccc21 [KM-5-25, 4-((5-Chloro-2-hydroxybenzyl)amino)isoindoline-1,3-dione] | 17 ± 6% | 10 ± 2 µM |  |  | 31 ± 7 µM | 80 µM (≈ 24.2 µg/mL) |  |  | concentration-dependent biofilm cell death |  |  |
| O=C1NC(=O)c2c(NCc3cc(Cl)c(O)cc3O)cccc21 [SB-16-160] | Not active | 77 ± 10 µM |  |  | 45 ± 6 µM | 80 µM (≈ 25.5 µg/mL) |  |  |  |  |  |
| O=C1NC(=O)c2c(NCc3cc(Br)cc(F)c3O)cccc21 [SB-16-118] |  | 4 ± 0.3 µM |  |  | 25 ± 8 µM | 40 µM (≈ 14.6 µg/mL) |  |  |  |  | 13 ± 2% |
| O=C1NC(=O)c2c(NCc3cccc(Cl)c3O)cccc21 [KM-5-30] | 72 ± 11% | 11 ± 3 µM |  |  | 57 ± 2 µM | 80 µM (≈ 24.2 µg/mL) |  |  |  |  |  |
| CC(C)(C)c1ccc(O)c(CNc2cccc3c2C(=O)NC3=O)c1 [SB-16-53] |  | 1 ± 0.2 µM | 12 ± 6 µM | 30 µM (≈ 9.73 µg/mL) |  |  |  | 48 ± 10% |  |  |  |
| Cc1cc(Cl)cc(CNc2cccc3c2C(=O)NC3=O)c1O [SB-16-156] |  | 7 ± 2 µM |  |  | 21 ± 5 µM | 40 µM (≈ 12.7 µg/mL) |  | 44 ± 18% |  |  |  |
| O=C1NC(=O)c2c(NCc3cc(Br)c(F)cc3O)cccc21 [SB-16-112] |  | 2 ± 0.6 µM |  |  | 14 ± 3 µM | 30 µM (≈ 11 µg/mL) |  | 15 ± 0.7% |  |  |  |
| Cc1cc(CNc2cccc3c2C(=O)NC3=O)c(O)cc1Br [SB-16-183] |  | 3 ± 0.6 µM |  |  | 13 ± 1 µM | 20 µM (≈ 7.22 µg/mL) |  |  |  | 43 ± 3% |  |
| Cc1cccc(CNc2cccc3c2C(=O)NC3=O)c1O [EB-5-70] | 105 ± 2% | 17 ± 2 µM |  |  |  | 100 µM (≈ 28.2 µg/mL) | Not active |  |  |  |  |
| O=C1NC(=O)c2c(NCc3cc(F)ccc3O)ccc(Br)c21 [SB-16-67] |  | 7 ± 1 µM |  |  | > 40 µM | 40 µM (≈ 14.6 µg/mL) |  |  |  |  |  |
| O=C1NC(=O)c2c(NCc3cc(Br)c(O)cc3O)cccc21 [SB-16-137] | 78 ± 21% | 9 ± 0.4 µM |  |  | 37 ± 4 µM | 80 µM (≈ 29.1 µg/mL) |  |  |  |  |  |
| O=C1NC(=O)c2c(NCc3cc(Cl)ccc3O)ccc(Br)c21 [SB-16-51] |  | 13 ± 2 µM |  |  | 18 ± 3 µM | 20 µM (≈ 7.63 µg/mL) |  |  |  | 53 ± 9% |  |
| O=C1NC(=O)c2c(NCc3cc(Br)cc(O)c3O)ccc(Br)c21 [SB-16-250] |  | 15 ± 3 µM |  |  | 5 ± 2 µM | 20 µM (≈ 8.84 µg/mL) |  |  |  | Not active |  |
